Test results from patent US20160310581A1, “ADAM10 INHIBITION TO TREAT FRAGILE X SYNDROME” (VIB VZW, priority 2013, published 2016).
“Also recorded” adds a separate entry of the source.

Key:
mGluR-dependent LTD = test: DHPG-induced mGluR-LTD, fEPSP recording in hippocampal slices; set-up: species or system mouse; details: for LTD of fEPSPs, % of baseline: 240 min; for effect on enhanced mGluR-LTD: Fmr1 KO mice, slices 24 h after peptide treatment; for effect on the ability of DHPG to elicit LTD: WT slices/mice, compared with untreated control
Experimental: Electrophysiology. Animals were euthanized by decapitation, and the right hippocampus was rapidly dissected out into ice-cold (4° C.) artificial cerebrospinal fluid (ACSF) and saturated with carbogen (95% O2/5% CO2). The ACSF consisted of (in mM): 124 NaCl, 4.9 KCl, 24.6 NaHCO3, 1.20 KH2PO4, 2.0 CaCl2, 2.0 MgCl2, and 10.0 glucose, pH 7.4. Transverse slices (400 μm thick) were prepared from the dorsal area of the hippocampus with a tissue chopper and were placed into a submerged-type chamber; samples were kept at 33° C. and continuously perfused with carbogen saturated ACSF at a flow-rate of 2.2 ml/min. After 90 min of incubation, one slice was arbitrarily selected, and a tungsten electrode was placed in the CA1 stratum radiatum. Field excitatory postsynaptic potentials (fEPSPs) were recorded by placing a glass electrode (filled with ACSF, 3-7 MΩ) in the stratum radiatum opposite the stimulating electrode. The time course of the field EPSP was measured as the descending slope function for all sets of experiments. After input/output curves had been established, the stimulation strength was adjusted to elicit a fEPSP-slope of 35% of the maximum and kept constant throughout the experiment. During the baseline recording, 3 single stimuli (0.1 ms pulse width; 10 s interval) were measured every 5 min. The mGluR mediated LTD was induced by a bath application of 30 μM S-DHPG [(S)-3-5-dihydroxy-phenyl glycine; Abcam Chemicals Ltd., Bristol UK] for 15 min (Tambuyzer et al., 2013). During the chemical induction, evoked responses were monitored at 1, 4, 7 and 10 min and then every 5 min until the end of the experiment. All studies were conducted with the experimenter blinded to the treatment regime.

[1] = system: group I metabotropic glutamate receptors (mGluR); details: DHPG 100 μM, 5 min
Experimental: Neuronal culture preparation and stimulation. Mouse primary cortical neurons (E15) were prepared as described (Ferrari et al., 2007). Neurons were treated with the mGluRI agonist DHPG (100 uM) for 5 min as described in Napoli et al., 2008.
Immunoprecipitation and RT-PCR. Mouse brains were lysed and the supernatant was used for the IP according to standardized protocol (Napoli et al., 2008). FMRP antibody or purified rabbit IgGs were incubated with the Protein A Sepharose beads and with brain extract or cells for 1 hr at 4° C. After incubation with the extracts RNA was extracted (Phenol/Chloroform) and precipitated in 2.5 v ethanol. First-strand synthesis was achieved using p(dN)6 and 100 U of Superscript III (Invitrogen) and PCR was performed with GoTaq (Promega), according to the manufacturer's instructions. We used specific oligonucleotides to amplify αCaMKII, App, Adam10, Adam9, Adam17, Cyp46, BC200, D2DR. When RTqPCR was used to quantify immunoprecipitated mRNA, the relative mRNA level in the immunoprecipitation samples was calculated as follows: 2^−[DCp(Ip)−DCp(IgG)]=2^−DDCp, where DCp equals Cp(IP or IgG)-Cp(Input).
Western Blot. Standard methodologies were used. 5-20 μg of total lysate or synaptoneurosomes were separated by SDS-PAGE electrophoresis and blotted on a PVDF membrane (Millipore). […] Further quantification was performed upon Coomassie staining of the membranes.

ADAM10 [2] = test: sAPP release into medium of cultured cortical neurons (western blot); assay type: cell-based, mouse; details: Fmr1 KO cortical neurons
Experimental: Neuronal culture preparation and stimulation.
(§1) Western Blot. Standard methodologies were used. […] Membranes were incubated using specific antibodies. […] 5 (Molecular Dynamics).
Peptide treatment. […] P20 mice were given intraperitoneal injections of the two peptides (3 nmol/g) and fractionation performed after 24 hrs. Experiment was conducted on WT and KO littermate mice.

ADAM10 [3] = test: sAPPα levels in brain after intraperitoneal peptide injection (brain fractionation, western blot); assay type: in vivo, mouse; details: Fmr1 KO mice; single i.p. injection 3 nmol/g, 24 h; vs TAT-Ala treated Fmr1 KO mice
Experimental: as §1
Brain fractionation. Half brain was homogenized in STE buffer (Sucrose 0.32 M, 5 mMTris HCl pH 7.4, 1 mM EDTA, PSMF 0.1 mM, 10 μl ml^−1 Protease inhibitor cocktail (PIC, Sigma). The homogenized tissue was centrifuged at 800 g for 10 min to pull down nuclei. The resulting supernatant was then centrifuged at 55000 rpm 1 h. The supernatant (S1) was collected while the pellet was dissolved in 1% Triton STE Buffer and centrifuged at 55.000 rpm (TLX) for 1 hr. The supernatant is collected (S2) and the final pellet homogenized in SDS Laemmli buffer 1× (Triton-insoluble fraction, P1).
Peptide treatment. Specific (TAT-PRO) or control (TAT-ALA) peptides (10 μM) were added to the media of DIV14 WT and KO cultured neuron and the release of sAPP was monitored by WB after 24 h. P20 mice were given intraperitoneal injections of the two peptides (3 nmol/g) and fractionation performed after 24 hrs. Experiment was conducted on WT and KO littermate mice.

[4] = system: dendritic spines of Fmr1 KO mice; test: Morphological analysis of dendritic spines in vivo (diolistic DiI labelling); set-up: species or system mouse; details: 3 nmol/g i.p., 24 h, hippocampal sections, vs TAT-Ala Fmr1 KO mice
Experimental: Morphological analysis. Wild type and Fmr1 KO mice received an intraperitoneal injection with either TAT-Pro or TAT-Ala peptides (3 nmol/g; 14-d-old mice; 8 mice/group). After 24 h, the mice were deeply anaesthetised with an intraperitoneal injection 0.54 mg/g Avertin and then perfused with ice-cold 4% PFA in 0.1M phosphate buffer (PB; 61.2 mM Na2HPO4, 23.2 mM NaH2PO4.H20, pH 7.4). Brains were removed and sectioned in 200 μm thick transverse slices containing both cortex and hippocampus using a Vibratome (Vibratome). Slices were equilibrated in PBS at 4° C. before applying the Dil-coated particles using a diolistic gene-gun system (Bio-Rad laboratories, Italy). 15 min after application, slices were fixed with 4% PFA in 0.1M PB (2 hours) and kept in PB O/N before mounting. Images of Dil-labelled neurons in the hippocampus and cortex were acquired using Zeiss Confocal LSM510 Meta system with 63× objective and a sequential acquisition setting at 1024×1024 pixels resolution. For each image three to four 0.5 μm sections were acquired and z-projection was obtained. Morphological analysis of dendritic spines was performed using freely available ImageJ 1.42q software (Wayne Rasband National Institutes of Health, USA), and spine length, head width and neck width were measured.

Fmr1 KO mice = test: Behavioral tests: open field (hyperactivity) and T-maze (working memory); assay type: in vivo, mouse; details: P24-25
Experimental: Behavioral tests. All behavioral experiments were performed with P24-25 male mice and blind to the genotype and treatment. We used a minimum of 9 animals per genotype and treatment. Mice were habituated to their new environment for 3 days and tests were conducted during the light phase of their activity cycle. Health and weight of the mice were recorded routinely during the whole period of testing.
Open-field exploration was tested in 50 cm×50 cm×30 cm (w×l×h) square arena illuminated by indirect light. Animals were dark adapted for 30 min and placed in the arena for 10 min each. Movements of the mice in the arena were video-tracked for 10 min and the images were transmitted to a PC equipped with ANY-maze™ Video Tracking System software (Stoelting Co., IL, USA).
Spatial working memory was evaluated in a delayed nonmatching alternation test using an elevated open T-shaped maze made of dark grey plastic. The maze was composed of three 50 cm×7 cm×4 cm (l×w×h) arms elevated 25 cm above the ground. Behavior was registered with a PC-interfaced camera and analyzed with ANY-maze™ Video Tracking System software (Stoelting Co., IL, USA). The mouse was subjected to two trials. During the exploration trial, one of the horizontal T-maze arms (novel arm) was blocked with a 10 cm high door and the mouse was placed into the start arm to explore freely the start and familiar arms for 5 min. […]

[5] = Marcello et al., 2007; cited from earlier work
ADAM10/SAP97 interaction = ADAM10/SAP97 interaction (Mus musculus, UniProt Q811D0); details: Marcello et al., 2007; cited from earlier work
Sequence of ADAM10/SAP97 interaction (Q811D0 whole entry): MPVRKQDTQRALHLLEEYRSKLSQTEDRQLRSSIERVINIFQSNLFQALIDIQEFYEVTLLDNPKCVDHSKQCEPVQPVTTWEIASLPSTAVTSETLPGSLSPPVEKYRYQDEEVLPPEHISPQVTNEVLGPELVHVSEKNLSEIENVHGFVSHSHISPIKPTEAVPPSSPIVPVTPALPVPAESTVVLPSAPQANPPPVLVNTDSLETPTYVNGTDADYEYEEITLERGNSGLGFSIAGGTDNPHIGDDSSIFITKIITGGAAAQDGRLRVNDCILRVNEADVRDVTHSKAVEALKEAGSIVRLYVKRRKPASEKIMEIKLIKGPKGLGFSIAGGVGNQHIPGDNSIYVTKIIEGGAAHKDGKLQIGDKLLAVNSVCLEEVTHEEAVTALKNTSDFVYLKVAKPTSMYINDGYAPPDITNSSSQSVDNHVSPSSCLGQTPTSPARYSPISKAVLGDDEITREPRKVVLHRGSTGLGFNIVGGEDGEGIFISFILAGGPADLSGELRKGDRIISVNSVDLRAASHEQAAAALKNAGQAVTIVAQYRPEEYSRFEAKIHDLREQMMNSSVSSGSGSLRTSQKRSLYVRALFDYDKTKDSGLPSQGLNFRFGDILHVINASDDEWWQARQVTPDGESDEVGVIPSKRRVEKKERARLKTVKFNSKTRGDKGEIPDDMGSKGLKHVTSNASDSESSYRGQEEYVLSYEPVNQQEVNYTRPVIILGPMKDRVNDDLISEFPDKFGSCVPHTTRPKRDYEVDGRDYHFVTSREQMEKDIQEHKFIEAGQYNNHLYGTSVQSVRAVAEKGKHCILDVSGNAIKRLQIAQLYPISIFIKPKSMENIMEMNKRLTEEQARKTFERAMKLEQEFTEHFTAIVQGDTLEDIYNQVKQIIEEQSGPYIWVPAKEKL

## N[C@H](C(=O)O)c1cc(O)cc(O)c1 [DHPG, (S)-3-5-dihydroxy-phenyl glycine]
mGluR-dependent LTD; Fmr1 KO mice slices, DHPG 30 μM, 15 min
  LTD of fEPSPs, % of baseline: 28±3%
mGluR-dependent LTD; WT slices, DHPG bath application 30 μM, 15 min
  LTD of fEPSPs, % of baseline: 53±9%
[1]; primary cortical neurons DIV14
  expression of APP: induced an increase
[1]; primary cortical neurons
  amount of App mRNA associated with FMRP: reduced by threefold

## TAT-Pro: Cell-permeable anti-ADAM10 peptide YGRKKRRQRRRPKLPPPKPLPGTLKRRRPPQP (SEQ ID NO:1): 11 aa Tat transporter sequence linked to 21 aa ADAM10 proline rich domains (Tat-Pro ADAM10 709-729 peptide)
ADAM10 [2]; peptide 10 μM, 1 h, compared to TAT-Ala exposed neurons
  sAPP release in the medium: significantly decreases sAPP release; also recorded: reduces sAPP release
ADAM10 [3]
  sAPPα levels in brain: significant reduction of sAPPα levels
[4]
  spines density: decreases spines density
  spines length: significantly increases
  spines width: significantly increases
mGluR-dependent LTD; DHPG 30 μM, 15 min, listed as Tat-Pro
  effect on enhanced mGluR-LTD: prevents mGluR-LTD
mGluR-dependent LTD; DHPG 30 μM, 15 min, listed as Tat-Pro ADAM10^709-729
  effect on enhanced mGluR-LTD: sufficient to prevent the enhanced LTD
mGluR-dependent LTD; WT slices, 24 h after peptide treatment, DHPG 30 μM, 15 min
  fEPSP after DHPG-induced LTD (% of baseline): 65±8%
mGluR-dependent LTD; listed as Tat-Pro
  effect on the ability of DHPG to elicit LTD: does not impact LTD
mGluR-dependent LTD; listed as Tat-Pro ADAM10^709-729
  effect on the ability of DHPG to elicit LTD: no detectable effect
Fmr1 KO mice
  behavioural deficits (open field hyperactivity, T-maze working memory): partially ameliorates the behavioural deficits
[5]
  blood-brain barrier crossing: crosses the blood-brain barrier
ADAM10/SAP97 interaction
  ADAM10/SAP97 interaction: interferes with ADAM10/SAP97 interaction

## TIMP-1: tissue inhibitor of metalloproteinase-1, an inhibitor of metalloproteinases
ADAM10 [2]; TIMP-1 15 nM for 4 h
  sAPP release in the medium: significantly reduces sAPP release
